From a melting point compilation (Tetko et al.; mined from patent text by program, amines drawn as free bases though some values may be those of a salt)

Structure (SMILES) | melting point
N[C@@H](Cc1ccc(C(F)(F)F)c(F)c1)[C@H](O)c1ccc(F)cc1 (racemic) | 86 to 87 °C
CC(C)c1c(C(=O)Nc2ccccc2)c(-c2ccccc2)c(-c2ccc(F)cc2)n1CCC(O)CC(O)CC(=O)N(c1ccccc1)c1ccccc1 (centres undefined) | 228 to 233 °C
CCOc1ccccc1OCCN(CCCC(OCC)c1ccc(F)cc1)C(C)=O (centres undefined) | 58 to 60 °C
O=C(O)c1cccc(Oc2ncccc2C(=O)NCc2ccccc2)c1 | 157 to 158 °C
Nc1ncnc2c1ncn2CC(/C=C/P(=O)(O)O)CO (centres undefined) | > 300 °C
CCC[C@H]1CC[C@H](c2ncc(C(=O)O)cn2)CC1 | 184 to 186 °C
NC(=O)c1cc(F)cc(-c2cccc3cc(Cc4cccc(C(F)(F)F)c4)sc23)c1 | 165 to 166 °C
O=C1c2ccccc2C(=O)N1C[C@H]1CN2C(=O)C[C@@H]2O1 (racemic) | 137 to 138 °C
O=C1CC(NC(=O)C2CCCN3C(=O)CCC(NC(=O)c4ccccc4)C(=O)N23)C(OCCc2ccccc2)O1 (centres undefined) | 101 °C
CCC(C)(C)N1C(=O)C(=O)N(c2ccc(C#N)cc2)C1=S | 173 to 174 °C
CCOC(=O)CCC1(CCC(=O)OCC)CCC(=O)N1 | 44 to 46 °C
O=c1n(CCO)c2cc(Br)c(Br)c(Br)c2n1CCO | 201 to 204 °C
N=C(N)N(Cc1ccccc1)c1ccc2c3c(cccc13)CC2 | 138 to 140 °C
Cc1oc(-c2ccccc2)nc1CCOc1ccc(CC2SC(=O)NC2=O)cc1 (centres undefined) | 113 to 114 °C
C=CCOC(=O)CCCCCCCCCCCCCCCCC | 35 to 36 °C
CCOC(=O)C=Cc1ccc(Cl)cc1NS(=O)(=O)c1ccc(C)cc1 | 124 to 127 °C
Cc1ccccc1N(Cc1cccnc1)S(C)(=O)=O | 97 to 98 °C
C[C@@H]1N=C(c2ccccc2)c2cc(C#CCCCC(=O)NO)ccc2N(C)C1=O | 101 to 103 °C
Cc1nc(N2CCCC(CCc3ccccc3)C2=O)sc1C(=O)NCc1ccccc1 (centres undefined) | 124 to 126 °C
Nc1nc(N)c2c(ccc3c2ccn3Cc2ccc(Cl)cc2Cl)n1 | 249 to 250 °C
O=C(O)CCCCCn1c(=O)c2ccccc2n(CCCCN2CCC(OC(c3ccccc3)c3ccccc3)CC2)c1=O | 155 to 157 °C
CCOC(=O)C1=C(N)NC2=C(C(=O)CCC2)C1c1ccccc1-c1ccccc1 (centres undefined) | 248 °C

Structure (SMILES) | melting point
O=C1C=C(CC2CCCC(C(F)(F)F)C2)C(=O)c2ccccc21 (centres undefined) | 65 °C
Cc1c(C(=O)O)sc2cncc(Oc3ccc(Cl)cc3)c12 | 315 to 317 °C
Cn1cc(C(=O)Nc2cc(Cl)ccc2-c2cccc(Cl)c2)c(C(F)(Cl)Cl)n1 | 145 to 146 °C
COc1ccc2oc(Cc3cccc(C(F)(F)F)c3)c(CC#N)c2c1 | 116 °C
Cc1cc(C(=O)O)n(-c2ccc(C=Cc3ccccc3)c(C#N)c2)n1 | 226 °C
C/C(=C\c1ccc(OC(C)C)cc1Oc1ncc(C(F)(F)F)cc1Cl)C(=O)O | 114 °C
Cc1oc(-c2ccccc2)nc1COc1ccc2c(-c3ccccc3)c(CO)oc2c1 | 152 to 153 °C
O=C(CCl)Nc1ccccc1C1C=CCC1 (centres undefined) | 101 to 102 °C
CCN(c1cccc(-c2ccnc3c([N+](=O)[O-])cnn23)c1)S(=O)(=O)c1ccccc1 | 189 to 191 °C
CCC(C)S(=O)(=O)c1cc(C(F)(F)F)ccc1C(=O)c1cnoc1C1CC1 (centres undefined) | 89 to 91 °C
COC(=O)c1ccc(-c2nc(COc3ccc(COc4nn(-c5ccccc5)cc4C=O)cc3OC)c(C)o2)cc1 | 190 to 191 °C
NC(=O)c1cccnc1Oc1cccc(Cl)c1 | 225 to 228 °C
Cc1oc(-c2ccccc2)nc1COc1ccc(COc2nn(C)cc2CC(=O)O)cn1 | 139 to 140 °C
CCCS(=O)c1c2ccccc2nc2c1c(C)nn2-c1ccccn1 (centres undefined) | 125 to 127 °C
COc1nc(-c2ccc3c(c2)OCO3)c2cc3c(cc2n1)OCO3 | 216 to 223 °C
CN(C)C=Nc1c(Cl)cc(N=Cc2c(Cl)cccc2Cl)cc1Cl | 84 to 86 °C
COc1ccc(C(=O)Nc2nc(-c3cccc(C#N)c3)c(-n3cncn3)s2)cc1 | 292 to 294 °C
CC(C)(C)OC(=O)N[C@@H](CC(=O)NCCC(=O)OCc1ccccc1)C(=O)OCc1ccccc1 | 77 to 78 °C
CC(C)(C)c1cc(OCc2ccccc2C#N)cc(C(C)(C)C)c1O | 117 to 119 °C
O=C(N1CCOCC1)C(Cl)(c1ccccc1)c1ccccc1 | 113 °C
Cn1cc(-c2cc3cccnc3[nH]2)c2cc(C(=O)NCCO)ccc21 | 256 to 257 °C

Further lines, results first:

melting point | Structure (SMILES)
103 °C | CC(NC(=O)n1c(=O)nc(N(C)C)n1C)c1ccccc1 (centres undefined)
220 to 224 °C | O=C(Nc1ccc2ccc(-c3ccc(Cl)cc3)nc2n1)c1cccc(Br)c1
71 to 73 °C | O=C(CCCCCCN(Cc1ccccc1)C(=O)c1cn2c3c(cccc13)CCC2)NO
129 to 130 °C | CC(C)C[C@H](NC(=O)CCc1ccccc1)C(=O)O
205 to 208 °C | O=C(O)c1nn(CCCCCCl)c2c1CCc1cc(Cl)sc1-2
77 to 79 °C | Cc1cc2cc(OCCCCBr)ccc2[nH]1
160 to 161 °C | CCC(C)CNC(=O)c1cc(NC)cc(C(=O)NCC(C)CC)c1 (centres undefined)
158 to 160 °C | N#Cc1c[nH]c(-c2ccccc2F)c1
> 195 °C | C#CC(Cn1cnnn1)n1nnc2cc3c(=O)n(C4CC4)nnc3cc2c1=O (centres undefined)
197 °C | CN1CCC(OC2c3ccccc3CCn3cc(-c4ccc(N)cc4)nc32)CC1 (centres undefined)
257 to 259 °C | N#Cc1cnc2cc3ccccc3cc2c1Nc1ccc(F)c(Cl)c1
95 °C | CC(=O)OC1CSC(Oc2cncc(-c3c(C)n[nH]c3C)c2)C(OC(C)=O)C1OC(C)=O (centres undefined)
201 °C | O=c1cc2ccccc2c[nH]1
165 to 167 °C | COC(=O)c1cc2c(I)cccc2cn1
99.2 to 101 °C | COc1cc(OC)cc(-c2ncn(C)c2-c2ccc(OC(F)F)c(N)c2)c1
139 to 141 °C | CC(C)(CCn1cnnc1)NCC(O)c1ccc(OCc2ccccc2)c(CO)c1 (centres undefined)
140 °C | COc1ccc(C(=C2CCN(CCc3c(C)nc4scc(C)n4c3=O)CC2)c2ccc(F)cc2)cc1
168 to 170 °C | Oc1ccc2c(c1)OCC(c1ccccc1)C2c1ccc(OCCN2CCCCC2)cc1 (centres undefined)
84 to 87 °C | COc1ncccc1C(=O)NCCc1ccncc1

melting point | Structure (SMILES)
220 °C | CCc1c(C)[nH]c(=O)c(I)c1Oc1cc(I)cc(CC#N)c1
92 to 94 °C | CC1=C(C(=O)OCCN2C(=O)c3ccccc3C2=O)C(c2cccc([N+](=O)[O-])c2)C(C(=O)OCCN2C(=O)c3ccccc3C2=O)=C(C)N1
86.5 to 89.5 °C | O=C(/C=C/c1cccnc1)N1CCN(C(=O)c2cc(C(F)(F)F)cc(C(F)(F)F)c2)[C@H](Cc2c[nH]c3ccccc23)C1
194 to 196 °C | NC(=O)CC(CC(N)=O)c1cccc(F)c1
197 °C | CCOC(=O)c1c(N2CCN(C(=O)c3cccs3)CC2)c2cc(Cl)cnc2n(Cc2ccccc2)c1=O
205 to 207 °C | O=C(O)COc1ccc2cc(-c3csc(Cc4c(Cl)cccc4Cl)n3)ccc2c1
192 to 195 °C | CCOC(=O)c1cn(-c2ccccn2)c2oc(CN3CCOCC3)cc2c1=O
259 to 262 °C | CS(=O)(=O)NC(=O)c1ccc(Cl)cc1NC(=O)c1cc(-c2ccc(Cl)cc2)oc1C(F)(F)F
51 to 53 °C | Cc1nccn1Cc1ccccc1
92 to 93 °C | COc1cnc(CSc2nc3cc(OC(F)(F)F)ccc3[nH]2)cc1OC
189 to 190 °C | Cc1cc(C)c(Oc2ccc(C=NNC(N)=O)cc2)c(C)c1
96 to 98 °C | CCOC(=O)N1CCC(C(=O)Cl)CC1
126 to 127 °C | COc1ccc(-c2ccn(C)c2-c2ccc(OC)cc2)cc1
95 to 96 °C | CCOC(=O)COc1nc2cc(OC)cc(OC)c2cc1-c1ccc(OC)cc1
270 to 274 °C | O=C1c2cc3ccc4c(c3c(-c3ccncc3)c2C[NH+]1[O-])OCO4 (centres undefined)
60 to 62 °C | C=CCC(=O)S/C=C\C(=O)NCCCCCCCC
204 to 206 °C | COc1cn(-c2ccc(N3CC(F)(F)C3)cc2F)nc(-c2ccnn2-c2ccccc2)c1=O
269 to 271 °C | CC(C)(O)Cn1cnc2c(N)nc3cc(CCS(C)(=O)=O)ccc3c21
97 to 98 °C | COC(=O)CC1CC(c2ccc(C#N)cn2)=NO1 (centres undefined)

melting point | Structure (SMILES)
154 to 155 °C | CC(C)N1CC[C@@H](Oc2ccc(-n3ccc(OCc4ccc(Cl)cn4)cc3=O)cc2)C1
198 to 200 °C | O=C(O)c1nc2cc(Oc3cccc([N+](=O)[O-])c3)c([N+](=O)[O-])cc2[nH]c1=O
150 to 153 °C | CCOC(=O)c1cnc(C(=O)O)cn1
139 to 142 °C | OCC1=Cc2cc3ccccc3n2CC1
224 to 225 °C | CC(C)On1cnc2c(N)nc3ccccc3c21
142 to 144 °C | Nc1ccccc1-c1nc2cccnc2o1
160 to 162 °C | CCc1cc(Oc2ccc(NC(=O)Nc3ccc(C)cc3)cc2)ncn1
146 to 148 °C | CCC1OC(=O)Nc2ccc(-c3cccc(Cl)c3)cc21 (centres undefined)
136 °C | CC(NC(=O)C1CCNCC1)c1ccccc1 (centres undefined)
244 to 245 °C | CC(=O)Nc1cc(Cn2c(C(=O)c3cc(C)cc(C)c3)c(C(C)C)c(=O)[nH]c2=O)ccn1
77 to 80 °C | Nc1cc(OCc2ccccc2)cc(OCc2ccccc2)c1
144 to 146 °C | O=C(O)c1ccc(N(Cc2cncs2)c2ccc(OC(F)F)c(OC(F)F)c2)cc1
84 to 88 °C | CCOC(=Cc1ccncc1)C(C)=O
53 to 55 °C | CCOC(=O)c1noc2ccccc12
177 to 180 °C | Cc1cc(C)c(-c2nc(C)cc3c2ncn3Cc2ccccc2)c(C)c1
180 °C | CN(C(=O)CN(C(=O)CNC(=O)Nc1cccc(O)c1)c1ccccc1)c1ccccc1
99 °C | C=C(C)C(=O)OCCOc1ccc(-c2cc(OC(=O)C(=C)C)cc(-c3ccc(OCCOC(=O)C(=C)C)cc3)c2)cc1
157 to 158 °C | CCN(CC)C(=O)c1ccn2nc(-c3ccccc3)c(-c3ccc(=O)n(C(C)C)n3)c2c1
